Data as given in patent publication US7601501B2, “Controlling osteogenesis by inhibition of osteogenic suppressors” (The Scripps Research Institute, priority 2006, dated 2009).
Entries after “also recorded” stand apart in the source; their conditions may differ. Strand notation (5' to 3'): a small letter for the sugar, then the base; units joined by * are phosphorothioate-linked, units joined directly phosphodiester-linked; [ ] holds rarer units or linkages, { } end groups; capitals alone tell only the bases. d = 2'-deoxy (DNA)

How the values were obtained:
CREB = experiment: CRE decoy transfection followed by osteogenic or adipogenic induction media; format: cell-based, human; conditions: 90 nM oligonucleotide, vs CRE mismatch control; for adipogenic differentiation after decoy transfection: adipogenic induction media
Method: (§1) The human mesenchymal stem cells (hMSCs, PT-2501) were purchased from Cambrex Inc. and cultured as instructed by the supplier. Cells were expanded to passage 5 before being used for siRNA library screen. Briefly, diluted Xtreme-siRNA transfection reagent (cat# 4 476 115 00, Roche) (0.12 μl Xtreme in 14 μl DMEM) was mixed with pre-spotted siRNA (14 ng/well) in each well of 384-well plates for one hour. Cells (4000/well) in 60 μl media (no antibiotics) were then added using automated dispenser (Multidrop 384, Thermo LabSystems) (siRNA final concentration at around 15 nM). Transfection was allowed to continue for 8 hours before first media renewal. After 7 days of culture, cells were stained for alkaline phosphatase (ALP) activity (cat# 86R-1KT, Sigma). Post-screen assays were done in 96-well plates and siRNA was transfected at the concentration of 30 nM at the cell density of 8000 cells/well. CRE decoy oligonucleotide and control oligonucleotide (phosphorothioate bond modification on all nucleotides) (Park, Y. G. et al., J Biol Chem 274:1573-1580 (1999)) were transfected into cells similarly as siRNA using Xtreme-siRNA transfection reagent, except that the final DNA concentration was 90 nM. Control siRNA (siCon) used in the screen contains a pool of 50 scrambled sequences that have at least 4 mismatches to known human transcripts and ESTs, and at least 2-3 mismatches to the whole human genome. siCon used in target characterization after primary screen was purchased from Dharmacon (D-001210-01-05), which was bioinformatically designed to have >=4 mismatches with known human and mouse genes. siTOX was also purchased from Dharmacon (D-001500-01-05).
To find out whether CREB (cAMP Responding Element Binding protein), a common downstream effector of cAMP signaling pathway, is involved in mediating cAMP signaling controlled differentiation of hMSCs, we checked the expression level of the active form of CREB proteins in cells 3 days after siP2RY11, siADK, siGNAS, siSLC12a2 or siCon transfection. […]

[1] = tested on: human mesenchymal stem cells (hMSCs); experiment: Oil Red O staining, adipogenic differentiation with adipogenic inducing media; format: cell-based
Method: Cells were rinsed with PBS twice, fixed in 10% formalin solution for 20 minutes, rinsed with PBS twice and dH2O once, washed with propylene glycol for 5 minutes, and stained with Oil red in propylene glycol (I2722A, Newcomer Supply) for 30 minutes. Cells were then washed with 85% propylene glycol for 5 minutes, rinsed with dH2O 3 times and preserved in 50% glycerol.
Bone cell maturation is accompanied by extracellular matrix (ECM) mineralization (John Bilezikian et al., Principles of bone biology, Vol 1, 2nd edn: Academic Press) (2002)). To examine whether the osteogenic differentiation of hMSCs induced by the hit siRNAs can further proceed to the maturation stage, hit siRNA treated cells were cultured for 20 days. […] These observations are consistent with the conclusion that the targeted genes of the ten effective hit siRNAs not only play inhibitory roles in osteogenic specification of hMSCs, but also in bone cell maturation. […] Furthermore, in osteoporotic patients, the number of adipocytes was increased in the marrow, implying a change of cell fate disposition from osteoblast lineage to adipocyte lineage (Justesen, J. et al., Biogerontology 2:165-171 (2001); Meunier, P. et al., Clin Orthop Relat Res 80:147-154 (1971)). […]

[2] = tested on: human mesenchymal stem cells (hMSCs); experiment: Compound treatment: OS-induced osteogenic differentiation of hMSCs (ALP / alizarin red staining); format: cell-based; conditions: compound combined with OS treatment; ALP and/or alizarin red staining
Method: 8-CPT-cAMP, Na (cat# 116812), 5-Iodotubercidin (cat# 407900), Prostaglandin E2 (PGE2, cat# 538904), SB 202190 (cat# 559388) and U0126 (cat# 662005) were purchased from Calbiochem; N6,2′-O-Dibutyryl-cAMP (cat# D0260-5MG), forskolin (cat# F6886), ascorbic acid 2-phosphate (cat# 49752-10G), β-glycerophosphate (G-6251), dexamethasone (D8893), 3-isobutyl-1-methylxanthine (IBMX, I5879) and Insulin (I 9278) were purchased from Sigma/Aldrich/Fluka.
Since the targeted genes are all positively involved in intracellular cAMP signaling, we tested the effect of two compounds of opposing function on cAMP production on osteogenic differentiation of hMSCs, ADK inhibitor 5-iodotubercidin and ADCY activator forskolin (Cottam, H. B. et al., J Med Chem 36:3424-3430 (1993); de Souza, N. J. et al., Med Res Rev 3:201-219 (1983)). […] ATP has been shown as a ligand for P2RY11 receptor (Communi et al., 1997). […] The present observations are consistent with the conclusion that […] in hMSCs, and vice versa.

[3] = tested on: human mesenchymal stem cells (hMSCs); experiment: Alizarin red staining for calcium phosphate deposits (ECM mineralization, bone cell maturation); format: cell-based; conditions: OS started three days after siRNA transfection and continued for 9 days
Method: Cells were rinsed with PBS twice, stained in alizarin red solution (cat# vw3611-2, VWR) for 8 minutes at room temperature, washed with PBS again, fixed in 10% formalin solution (cat# HT-5014, Sigma) for 20 minutes, then rinsed with water and air dried.
Bone cell maturation is accompanied by extracellular matrix (ECM) mineralization (John Bilezikian et al., Principles of bone biology, Vol 1, 2nd edn: Academic Press) (2002)). […] […] These observations are consistent with the conclusion that the targeted genes of the ten effective hit siRNAs not only play inhibitory roles in osteogenic specification of hMSCs, but also in bone cell maturation. […] Furthermore, in osteoporotic patients, the number of adipocytes was increased in the marrow, implying a change of cell fate disposition from osteoblast lineage to adipocyte lineage (Justesen, J. et al., Biogerontology 2:165-171 (2001); Meunier, P. et al., Clin Orthop Relat Res 80:147-154 (1971)). We therefore examined the effect of our hit siRNAs on adipogenic differentiation of hMSCs by combined treatment with an adipogenic inducing cocktail (100 μg/ml IBMX, 1 μM DEX and 10 μg/ml insulin).

BMP-2, PLZF, TAZ = experiment: RT-PCR of positive regulators of osteogenesis; format: cell-based, human; conditions: samples collected on day 7 or day 12 after siRNA transfection
Method: Total RNA from each sample was prepared from around 5×10(4) cells using RNAeasy mini kit from Qiagen and further treated with Turbo DNA-Free (cat# 1907, Ambion) to prevent DNA contamination. Reverse transcription was carried out using SuperScript First-Strand Synthesis System for RT-PCR (cat# 11904-018, Invitrogen) or Qiagen OneStep RT-PCR kit (cat# 210210) as instructed. PCR primers used were as follows: […]
To test their roles in our siRNA induced osteogenic differentiation, RT-PCR was performed on these genes. […] In addition, MAPK signaling pathways have been shown activated in the OS treated hMSCs, and inhibition of these pathways suppresses OS induced osteogenesis (FIG. 9b) (Jaiswal, R. K. et al., J Biol Chem 275:9645-9652 (2000)).

[4] = tested on: human mesenchymal stem cells (hMSCs); experiment: Alkaline phosphatase (ALP) activity staining of siRNA-transfected hMSCs (osteogenic differentiation screen); format: cell-based; conditions: for ALP activity induced by the hit siRNAs or OS, on co-transfection: co-transfected with each hit siRNA, compared to siCon co-transfection
Method: as §1
Fifty five hits that gave rise to a significant increase of ALP activity on day 7 after siRNA transfection in hMSCs were identified and confirmed (FIG. 2a & Table 1).

ERK1/2 and p38 = experiment: Western blot of phosphorylated ERK1/2 and p38; format: cell-based, human; conditions: 72 hours after transfection
Method: Cell lyses buffer contains 20 mM Tris pH8.0, 1 mM EDTA, 150 mM NaCl and 0.5% NP-40, and before usage, protease inhibitor cocktail (Cat# p8340, Sigma, 1:100 dilution) and phosphatase inhibitor cocktail 2 (Cat# p5726, sigma, 1:100 dilution) were added. Proteins (60 μg/well) were separated in 12% Novex Tris-Glycine gel (Cat# EC6008 box, Invitrogen) and transferred to Nitrocellulose membrane (Cat# LC2001, Invitrogen) using the XCell II blot module system (Cat# EI9051, Invitrogen). The membrane was blocked in 5% milk/PBST for 1 hour at room temperature, incubated over night at 4 degree with primary antibody, washed 3 times with PBST (0.05% Tween 20 in PBS), followed by one hour incubation with secondary antibody in 5% milk/PBST and 3 times wash with PBST at room temperature. For antibody against pCREB however, PBST was substituted with PBS in all steps except for the last one. Antibody-bound proteins were detected utilizing ECL Western blotting detection reagent (Amersham Biosciences).
Anti-phospho-CREB was purchased from Upstate Biotechnology (cat# 06-519); Anti-phospho-p38 was purchased from Cell signaling technology (cat# 9910).
We therefore examined the activation status of ERK1/2 and p38 in the siDUSP6 treated hMSCs along with other siRNA treated samples by western blot using antibodies against the phosphorylated form of the protein at 72 hours after transfection (FIG. 9c).

Compound: 5′-TGACGTCATGACGTCATGACGTCA-3′ (DNA dT*dG*dA*dC*dG*dT*dC*dA*dT*dG*dA*dC*dG*dT*dC*dA*dT*dG*dA*dC*dG*dT*dC*dA) [CRE decoy, synthetic 24-mer CRE decoy palindrome oligonucleotide, phosphorothioate bond modification on all nucleotides]
- adipogenic differentiation after decoy transfection (CREB): inhibited cells from undergoing adipogenic differentiation
- adipogenic differentiation after decoy transfection (CREB; listed as CRE (CREB responding element) decoy): less responsive
- osteogenic differentiation after decoy transfection (CREB; osteogenic induction media (OS), listed as CRE (CREB responding element) decoy): less responsive

Compound: Nc1ncnc2c1c(I)cn2[C@@H]1O[C@H](CO)[C@@H](O)[C@H]1O [5-iodotubercidin]
- adipogenic differentiation of hMSCs (oil red o staining), compound ([1]; adipogenic inducing media plus compound): inhibited the adipogenic differentiation of hMSCs in a dose dependent manner
- osteogenic effect of the OS media on hMSCs [2]: significantly enhanced; also recorded: enhanced the osteogenic effect of the OS media

Compound: CAGAUGCAUCGACCAAAAC (siRNA; listed as RNA, chemistry not fully specified) [siMJD, siRNA targeting Machado-Joseph disease (ataxin 3)]
- intensity of alizarin red staining (bone cell maturation), 3+9OS [3]: no significant effect
- expression of PLZF (RT-PCR) (BMP-2, PLZF, TAZ): detected; also recorded: induced

Compound: CGGUCACGGAUGACGACUA (listed as RNA, chemistry not given here) [siCOMP, siRNA targeting cartilage oligomeric matrix protein]
- adipogenesis induced by adipogenic inducing media (Oil Red O) ([1]; Adipo on the third day after siRNA transfection, continued for 12 days): enhances adipogenesis
- osteogenic differentiation (alkaline phosphatase activity) ([4]; 9 days after siRNA transfection): induces osteogenic differentiation

Compound: CUGUGGUGUCUUGGUACAU (listed as RNA, chemistry not given here) [siDUSP6, siRNA targeting dual specificity phosphatase 6]
- intensity of alizarin red staining (bone cell maturation), 3+9OS [3]: modest enhancement
- phosphorylated (active) p38 level (Western blot) (ERK1/2 and p38): increased level; also recorded: up regulated

Compound: UAGUAGAGAUAUGGAGUGCtg (antisense); GCACUCCAUAUCUCUACUAtt (sense) (chain 1 UAGUAGAGAUAUGGAGUGCTG; chain 2 GCACUCCAUAUCUCUACUATT; chemistry not given here) [CBFA1 siRNA, CBFA 1-specific siRNA]
- ALP activity induced by the hit siRNAs or OS, on co-transfection [4]: reduced the level of ALP activity
- ALP activity induced by the hit siRNAs or OS, on co-transfection ([4]; listed as siCbfa 1): reduced
